Data on seven molecules can be found in US20120058989A1, “ANTIBACTERIAL FLUOROQUINOLONE ANALOGS” (Achaogen, Inc., priority 2008, published 2012).

Assay in all cases: MIC, CLSI broth microdilution
Holding throughout (format): cell-based
In general terms: Broth dilution looks for growth in wells or tubes with falling amounts of substance.

Assay [1] relates to A. baumannii AABA1009 (Fluoroquinolone-resistant). To be noted: Table 2. As to the method: (§1) Minimum inhibitory concentrations (MIC) were determined by reference Clinical and Laboratory Standards Institute (CLSI) broth microdilution methods per M7-A7 [2006]. Quality control ranges utilizing E. coli ATCC 25922, P. aeruginosa ATCC 27853 and S. aureus ATCC 29213, and interpretive criteria for comparator agents were as published in CLSI M100-S17 [2007]. Briefly, serial two-fold dilutions of the test compounds were prepared at 2× concentration in Mueller Hinton Broth. The compound dilutions were mixed in 96-well assay plates in a 1:1 ratio with bacterial inoculum. The inoculum was prepared by suspension of a colony from an agar plate that was prepared the previous day. Bacteria were suspended in sterile saline and added to each assay plate to obtain a final concentration of 5×10^5 CFU/mL. The plates were incubated at 35° C. for 20 hours in ambient air.

In assay [2] the test system is A. baumannii AABA1065 (Fluoroquinolone-susceptible). To be noted: Table 2. As to the method: as §1
Assay [3] has as its system E. coli AECO001 (Fluoroquinolone susceptible, ATCC25922). The settings on record: Table 2, 35° C., 20 hours. How it is done: as §1
The test system of assay [4] is E. coli AECO066 (Fluoroquinolone-resistant). To be noted: Table 2. As to the method:
as §1

The test system of assay [5] is P. aeruginosa APAE001 (Fluoroquinolone-susceptible, ATCC27853). To be noted: Table 2. As to the method:
as §1

Assay [6] concerns P. aeruginosa APAE054 (Fluoroquinolone-resistant). The settings on record: Table 2. How it is done: as §1
For assay [7], the system named is S. aureus ASAU001 (Fluoroquinolone-susceptible, ATCC29213). The settings on record: Table 2. As to the method:
as §1

Assay [8] concerns S. aureus ASAU1031 (Fluoroquinolone-resistant). To be noted: Table 2. As to the method: as §1
The subject of assay [9] is S. pneumoniae ASPN001 (Fluoroquinolone-susceptible, ATCC49619). To be noted: Table 2. As to the method: as §1
The subject of assay [10] is S. pneumoniae ASPN1027 (Fluoroquinolone-resistant). To be noted: Table 2. How it is done:
as §1

As to `CC(=O)N1Cc2c(c(F)cc3c(=O)c(C(=O)O)cn(C4CC4)c23)N2CCCC2C1` (stereo not shown) [14/4, 2-Acetyl-13-cyclopropyl-8-fluoro-10-oxo-2,3,3a,4,5,6,10,13-octahydro-1H-pyrrolo[2′,1′:3,4][1,4]diazepino[5,6-h]quinoline-11-carboxylic acid], in assay [1], the “MIC AABA 1009” value is listed as “C (MIC's of greater than 8.0 μg/mL = C)”. Besides, the “MIC AABA 1065” value in assay [2] is reported as “C (MIC's of greater than 8.0 μg/mL = C)”. In assay [3], the “MIC AECO 001” value was “B (MIC's of greater than 1.0 μg/mL to 8.0 μg/mL = B)”. Besides, the “MIC AECO 066” value in assay [4] is “C (MIC's of greater than 8.0 μg/mL = C)”. In assay [5], the “MIC APAE 001” value was “C (MIC's of greater than 8.0 μg/mL = C)”. The “MIC APAE 054” value in assay [6] is on record as “C (MIC's of greater than 8.0 μg/mL = C)”. In addition, the “MIC ASAU 001” value in assay [7] was “C (MIC's of greater than 8.0 μg/mL = C)”. For the same molecule, in assay [8], the “MIC ASAU 1031” value is listed as “C (MIC's of greater than 8.0 μg/mL = C)”. In assay [9], the “MIC ASPN 001” value is “C (MIC's of greater than 8.0 μg/mL = C)”. For the same molecule, the “MIC ASPN 1027” value in assay [10] was “C (MIC's of greater than 8.0 μg/mL = C)”.
As to `CN1Cc2c(c(F)cc3c(=O)c(C(=O)O)cn(C4CC4)c23)N2CCCC2C1.O=C(O)C(F)(F)F` (stereo not shown) [15/3, 13-Cyclopropyl-8-fluoro-2-methyl-10-oxo-2,3,3a,4,5,6,10,13-octahydro-1H-pyrrolo[2′,1′:3,4][1,4]diazepino[5,6-h]quinoline-11-carboxylic acid trifluoroacetate], in [1], the “MIC AABA 1009” value was “C (MIC's of greater than 8.0 μg/mL = C)”. Besides, the “MIC AABA 1065” value in [2] was “A (MIC's of 1.0 μg/mL or less = A)”. Moreover, the “MIC AECO 001” value in assay [3] is reported as “A (MIC's of 1.0 μg/mL or less = A)”. Also, the “MIC AECO 066” value in assay [4] is “C (MIC's of greater than 8.0 μg/mL = C)”. Further, the “MIC APAE 001” value in [5] is given as “C (MIC's of greater than 8.0 μg/mL = C)”. Further, the “MIC APAE 054” value in assay [6] was “C (MIC's of greater than 8.0 μg/mL = C)”. The “MIC ASAU 001” value in assay [7] was “A (MIC's of 1.0 μg/mL or less = A)”. The “MIC ASAU 1031” value in assay [8] is reported as “C (MIC's of greater than 8.0 μg/mL = C)”. Further, the “MIC ASPN 001” value in [9] is “B (MIC's of greater than 1.0 μg/mL to 8.0 μg/mL = B)”. Further, the “MIC ASPN 1027” value in assay [10] is given as “C (MIC's of greater than 8.0 μg/mL = C)”.
As for `O=C(O)c1cn(C2CC2)c2c3c(c(F)cc2c1=O)N1C[C@H](O)C[C@H]1CC=C3` [18/6, (7aR,9R)-4-Cyclopropyl-12-fluoro-9-hydroxy-1-oxo-4,7,7a,8,9,10-hexahydro-1H-pyrrolo[1′,2′:1,7]azepino-[2,3-h]quinoline-2-carboxylic acid], the “MIC AABA 1009” value in [1] is “C (MIC's of greater than 8.0 μg/mL = C)”. Moreover, the “MIC AABA 1065” value in assay [2] is on record as “B (MIC's of greater than 1.0 μg/mL to 8.0 μg/mL = B)”. Further, the “MIC AECO 001” value in assay [3] is on record as “A (MIC's of 1.0 μg/mL or less = A)”. In addition, the “MIC AECO 066” value in assay [4] was “C (MIC's of greater than 8.0 μg/mL = C)”. Moreover, the “MIC APAE 001” value in [5] was “C (MIC's of greater than 8.0 μg/mL = C)”. In addition, the “MIC APAE 054” value in assay [6] is “C (MIC's of greater than 8.0 μg/mL = C)”. Moreover, the “MIC ASAU 001” value in [7] is recorded as “A (MIC's of 1.0 μg/mL or less = A)”. The “MIC ASAU 1031” value in assay [8] is “B (MIC's of greater than 1.0 μg/mL to 8.0 μg/mL = B)”. The “MIC ASPN 001” value in assay [9] is “A (MIC's of 1.0 μg/mL or less = A)”. Moreover, the “MIC ASPN 1027” value in assay [10] is listed as “C (MIC's of greater than 8.0 μg/mL = C)”.
On to `O=C(O)c1cn(C2CC2)c2c3c(c(F)cc2c1=O)N1C[C@H](O)C[C@H]1CCC3` [18/8, (7aR,9R)-4-Cyclopropyl-12-fluoro-9-hydroxy-1-oxo-4,5,6,7,7a,8,9,10-octahydro-1H-pyrrolo-[1′,2′:1,7]aze-pino[2,3-h]quinoline-2-carboxylic acid], for which the “MIC AABA 1009” value in assay [1] is recorded as “C (MIC's of greater than 8.0 μg/mL = C)”. In addition, in assay [2], the “MIC AABA 1065” value was “B (MIC's of greater than 1.0 μg/mL to 8.0 μg/mL = B)”. In assay [3], the “MIC AECO 001” value was “A (MIC's of 1.0 μg/mL or less = A)”. Also, the “MIC AECO 066” value in assay [4] was “C (MIC's of greater than 8.0 μg/mL = C)”. Moreover, the “MIC APAE 001” value in [5] is recorded as “C (MIC's of greater than 8.0 μg/mL = C)”. For the same molecule, in assay [6], the “MIC APAE 054” value is “C (MIC's of greater than 8.0 μg/mL = C)”. Moreover, the “MIC ASAU 001” value in assay [7] is “A (MIC's of 1.0 μg/mL or less = A)”. Further, the “MIC ASAU 1031” value in [8] is “B (MIC's of greater than 1.0 μg/mL to 8.0 μg/mL = B)”. In addition, the “MIC ASPN 001” value in assay [9] is given as “A (MIC's of 1.0 μg/mL or less = A)”. Also, in assay [10], the “MIC ASPN 1027” value was “C (MIC's of greater than 8.0 μg/mL = C)”.
For `O=C1C[C@H]2CC=Cc3c(c(F)cc4c(=O)c(C(=O)O)cn(C5CC5)c34)N2C1` [18/10, (7aR)-4-Cyclopropyl-12-fluoro-1,9-dioxo-4,7,7a,8,9,10-hexahydro-1H-pyrrolo[1′,2′:1,7]azepino[2,3-h]quino-line-2-carboxylic acid], the “MIC AABA 1009” value in [1] is “C (MIC's of greater than 8.0 μg/mL = C)”. Besides, the “MIC AABA 1065” value in assay [2] is “C (MIC's of greater than 8.0 μg/mL = C)”. In assay [3], the “MIC AECO 001” value is “B (MIC's of greater than 1.0 μg/mL to 8.0 μg/mL = B)”. For the same molecule, the “MIC AECO 066” value in [4] was “C (MIC's of greater than 8.0 μg/mL = C)”. Further, the “MIC APAE 001” value in [5] is recorded as “C (MIC's of greater than 8.0 μg/mL = C)”. In addition, the “MIC APAE 054” value in assay [6] is on record as “C (MIC's of greater than 8.0 μg/mL = C)”. Further, the “MIC ASAU 001” value in [7] is “A (MIC's of 1.0 μg/mL or less = A)”. Further, the “MIC ASAU 1031” value in assay [8] is “C (MIC's of greater than 8.0 μg/mL = C)”. Further, the “MIC ASPN 001” value in assay [9] was “B (MIC's of greater than 1.0 μg/mL to 8.0 μg/mL = B)”. The “MIC ASPN 1027” value in assay [10] is on record as “C (MIC's of greater than 8.0 μg/mL = C)”.
In the case of `O=C(O)c1cn(C2CC2)c2c3c(c(F)cc2c1=O)N1CC(=NO)C[C@H]1CC=C3` [18/11, (7aR,9E)-4-Cyclopropyl-12-fluoro-9-(hydroxyimino)-1-oxo-4,7,7a,8,9,10-hexahydro-1H-pyrrolo[1′,2′:1,7]aze-pino[2,3-h]quinoline-2-carboxylic acid], the “MIC AABA 1009” value in [1] is recorded as “C (MIC's of greater than 8.0 μg/mL = C)”. The “MIC AABA 1065” value in assay [2] is listed as “A (MIC's of 1.0 μg/mL or less = A)”. Moreover, the “MIC AECO 001” value in assay [3] was “A (MIC's of 1.0 μg/mL or less = A)”. Also, the “MIC AECO 066” value in assay [4] is given as “C (MIC's of greater than 8.0 μg/mL = C)”. Moreover, the “MIC APAE 001” value in [5] is given as “B (MIC's of greater than 1.0 μg/mL to 8.0 μg/mL = B)”. Besides, in assay [6], the “MIC APAE 054” value is listed as “C (MIC's of greater than 8.0 μg/mL = C)”. Besides, the “MIC ASAU 001” value in assay [7] is “A (MIC's of 1.0 μg/mL or less = A)”. Moreover, in assay [8], the “MIC ASAU 1031” value is on record as “A (MIC's of 1.0 μg/mL or less = A)”. The “MIC ASPN 001” value in assay [9] is “A (MIC's of 1.0 μg/mL or less = A)”. In addition, the “MIC ASPN 1027” value in [10] is “A (MIC's of 1.0 μg/mL or less = A)”.
As to `O=C(O)c1cn(C2CC2)c2c3c(c(F)cc2c1=O)N1CC[C@H](O)[C@H]1CC=C3` [19/5, (7aR,8S)-4-Cyclopropyl-12-fluoro-8-hydroxy-1-oxo-4,7,7a,8,9,10-hexahydro-1H-pyrrolo[1′,2′:1,7]azepino[2,3-h]quinoline-2-carboxylic acid], in assay [1], the “MIC AABA 1009” value is recorded as “C (MIC's of greater than 8.0 μg/mL = C)”. Further, the “MIC AABA 1065” value in [2] is “B (MIC's of greater than 1.0 μg/mL to 8.0 μg/mL = B)”. Moreover, the “MIC AECO 001” value in [3] is “B (MIC's of greater than 1.0 μg/mL to 8.0 μg/mL = B)”. Moreover, the “MIC AECO 066” value in assay [4] is on record as “C (MIC's of greater than 8.0 μg/mL = C)”. The “MIC APAE 001” value in [5] is “C (MIC's of greater than 8.0 μg/mL = C)”. Further, the “MIC APAE 054” value in assay [6] is on record as “C (MIC's of greater than 8.0 μg/mL = C)”. For the same molecule, the “MIC ASAU 001” value in [7] was “A (MIC's of 1.0 μg/mL or less = A)”. For the same molecule, the “MIC ASAU 1031” value in assay [8] is recorded as “C (MIC's of greater than 8.0 μg/mL = C)”. Moreover, the “MIC ASPN 001” value in [9] was “B (MIC's of greater than 1.0 μg/mL to 8.0 μg/mL = B)”. In addition, the “MIC ASPN 1027” value in assay [10] was “C (MIC's of greater than 8.0 μg/mL = C)”.
